Marks after values point to notes of the source that are not given here.
Columns and labels:
[1] = tested on: isolation-induced aggressive behavior in pairs of mice; assay: Isolation-induced aggression model in pairs of mice; format: in vivo, CrI:CD-1(ICR)BR albino mice
Method: The effects of test compound on the aggressive behavior of CrI:CD-1(ICR)BR albino mice were evaluated using the paradigm of isolation-induced aggression.
Male CrI:CD-1(ICR)BR albino mice, fasted overnight, were individually housed for 5 weeks in plastic cages on wood-chip bedding. Subsequently, they were paired for 1 minute daily for several days by placing one individually housed mouse (intruder) into the resident cage of another individually housed mouse (resident). The 1-minute pairing of intruder and resident mouse elicits aggressive behavior. Pairs of mice showing consistent aggressive behavior when paired for 1 minute, during several days were selected as subjects for drug testing.
Test compound (10 to 40 mg/kg p.o.) or the vehicle (methocel; aqueous 0.5%, w/v, hydroxypropyl methylcellulose solution) was administered (10 mL/kg) to the resident and intruder mouse. One and 4 hours after dosing, the mice were paired and the onset of fighting was recorded. […] The duration of fighting during a 1-minute test period was recorded. Mice were re-used in this procedure after several days to a week to allow metabolism and elimination of test compounds. The mice weighed 32 to 49 g at the time of testing and were fasted overnight before dosing. Mice were euthanized with CO2 if they were sick or injured.
Results were expressed as the median onset of fighting and median duration of fighting in vehicle and drug-treated groups. The statistical significance of an increase in the median onset or a reduction in the median duration of fighting in pairs of mice given test compound or its vehicle 1 and 4 hours after administration was determined using the nonparametric Wilcoxon test (p<0.05, 1-tailed).

[2] = tested on: general behavior of male mice; assay: General behavior of male mice by visual observation using a checklist of behaviors; format: in vivo; conditions: for Number of Mice Affected: Decreased Open Field Activity / Number of Mice Affected: Decreased Startle Reflex / Number of Mice Affected: Extensor Limb Tone (hind limb) / Number of Mice Affected: Impaired Horizontal Screen Performance / Number of Mice Affected: Impaired Visual Placing Reflex / Number of Mice Affected: Locomotor Ataxia / Number of Mice Affected: Loss of Corneal Reflex / Number of Mice Affected: Loss of Pinnal Reflex / Number of Mice Affected: Loss of Righting Reflex / Number of Mice Affected: Passive Response to Handling / Number of Mice Affected: Reduced Skin Plasticity / Number of Mice Affected: Soft Body Tone / Number of Mice Affected: Tail Pinch Response, Absent: N = 3/group
Method: The effects of test compound on general behavior were evaluated by visual observation using a checklist of behaviors.

[3] = 10 mg/kg p.o., 1 hour after administration
[4] = 10 mg/kg p.o., 4 hours after administration
[5] = 20 mg/kg p.o., 1 hour after administration
[6] = 20 mg/kg p.o., 4 hours after administration
[7] = 30 mg/kg p.o., 1 hour after administration
[8] = 30 mg/kg p.o., 4 hours after administration
[9] = 40 mg/kg p.o., 1 hour after administration
[10] = 40 mg/kg p.o., 4 hours after administration

Number of Mice Affected: Decreased Open Field Activity ([2]; 40 mg/kg p.o., 1 h): 0
Number of Mice Affected: Decreased Startle Reflex ([2]; 40 mg/kg p.o., 1 h): 0
Number of Mice Affected: Extensor Limb Tone (hind limb) ([2]; 40 mg/kg p.o., 1 h): 0
Number of Mice Affected: Impaired Horizontal Screen Performance ([2]; 40 mg/kg p.o., 1 h): 0
Number of Mice Affected: Impaired Visual Placing Reflex ([2]; 40 mg/kg p.o., 1 h): 0
Number of Mice Affected: Loss of Corneal Reflex ([2]; 40 mg/kg p.o., 1 h): 0
Number of Mice Affected: Loss of Pinnal Reflex ([2]; 40 mg/kg p.o., 1 h): 0
Number of Mice Affected: Loss of Righting Reflex ([2]; 40 mg/kg p.o., 1 h): 0
Number of Mice Affected: Passive Response to Handling ([2]; 40 mg/kg p.o., 1 h): 0
Number of Mice Affected: Reduced Skin Plasticity ([2]; 40 mg/kg p.o., 1 h): 0
Number of Mice Affected: Soft Body Tone ([2]; 40 mg/kg p.o., 1 h): 0
Number of Mice Affected: Tail Pinch Response, Absent ([2]; 40 mg/kg p.o., 1 h): 0
Number of Mice Affected: Decreased Open Field Activity ([2]; 40 mg/kg p.o., 4 h): 0
Number of Mice Affected: Decreased Startle Reflex ([2]; 40 mg/kg p.o., 4 h): 0
Number of Mice Affected: Extensor Limb Tone (hind limb) ([2]; 40 mg/kg p.o., 4 h): 0
Number of Mice Affected: Impaired Horizontal Screen Performance ([2]; 40 mg/kg p.o., 4 h): 0
Number of Mice Affected: Impaired Visual Placing Reflex ([2]; 40 mg/kg p.o., 4 h): 0
Number of Mice Affected: Loss of Corneal Reflex ([2]; 40 mg/kg p.o., 4 h): 0
Number of Mice Affected: Loss of Pinnal Reflex ([2]; 40 mg/kg p.o., 4 h): 0
Number of Mice Affected: Loss of Righting Reflex ([2]; 40 mg/kg p.o., 4 h): 0
Number of Mice Affected: Passive Response to Handling ([2]; 40 mg/kg p.o., 4 h): 0
Number of Mice Affected: Reduced Skin Plasticity ([2]; 40 mg/kg p.o., 4 h): 0
Number of Mice Affected: Soft Body Tone ([2]; 40 mg/kg p.o., 4 h): 0
Number of Mice Affected: Tail Pinch Response, Absent ([2]; 40 mg/kg p.o., 4 h): 0
Number of Mice Affected: Decreased Open Field Activity ([2]; 100 mg/kg p.o., 1 h): 0
Number of Mice Affected: Decreased Startle Reflex ([2]; 100 mg/kg p.o., 1 h): 0
Number of Mice Affected: Extensor Limb Tone (hind limb) ([2]; 100 mg/kg p.o., 1 h): 0
Number of Mice Affected: Impaired Horizontal Screen Performance ([2]; 100 mg/kg p.o., 1 h): 0
Number of Mice Affected: Impaired Visual Placing Reflex ([2]; 100 mg/kg p.o., 1 h): 0
Number of Mice Affected: Loss of Corneal Reflex ([2]; 100 mg/kg p.o., 1 h): 0
Number of Mice Affected: Loss of Pinnal Reflex ([2]; 100 mg/kg p.o., 1 h): 0
Number of Mice Affected: Loss of Righting Reflex ([2]; 100 mg/kg p.o., 1 h): 0
Number of Mice Affected: Passive Response to Handling ([2]; 100 mg/kg p.o., 1 h): 0
Number of Mice Affected: Reduced Skin Plasticity ([2]; 100 mg/kg p.o., 1 h): 0
Number of Mice Affected: Soft Body Tone ([2]; 100 mg/kg p.o., 1 h): 0
Number of Mice Affected: Tail Pinch Response, Absent ([2]; 100 mg/kg p.o., 1 h): 0
Number of Mice Affected: Decreased Open Field Activity ([2]; 100 mg/kg p.o., 4 h): 0
Number of Mice Affected: Decreased Startle Reflex ([2]; 100 mg/kg p.o., 4 h): 0
Number of Mice Affected: Extensor Limb Tone (hind limb) ([2]; 100 mg/kg p.o., 4 h): 0
Number of Mice Affected: Impaired Horizontal Screen Performance ([2]; 100 mg/kg p.o., 4 h): 0
Number of Mice Affected: Impaired Visual Placing Reflex ([2]; 100 mg/kg p.o., 4 h): 0
Number of Mice Affected: Loss of Corneal Reflex ([2]; 100 mg/kg p.o., 4 h): 0
Number of Mice Affected: Loss of Pinnal Reflex ([2]; 100 mg/kg p.o., 4 h): 0
Number of Mice Affected: Loss of Righting Reflex ([2]; 100 mg/kg p.o., 4 h): 0
Number of Mice Affected: Passive Response to Handling ([2]; 100 mg/kg p.o., 4 h): 0
Number of Mice Affected: Reduced Skin Plasticity ([2]; 100 mg/kg p.o., 4 h): 0
Number of Mice Affected: Soft Body Tone ([2]; 100 mg/kg p.o., 4 h): 0
Number of Mice Affected: Tail Pinch Response, Absent ([2]; 100 mg/kg p.o., 4 h): 0
Number of Mice Affected: Decreased Open Field Activity ([2]; 300 mg/kg p.o., 1 h): 3
Number of Mice Affected: Decreased Startle Reflex ([2]; 300 mg/kg p.o., 1 h): 3
Number of Mice Affected: Extensor Limb Tone (hind limb) ([2]; 300 mg/kg p.o., 1 h): 3
Number of Mice Affected: Impaired Horizontal Screen Performance ([2]; 300 mg/kg p.o., 1 h): 3
Number of Mice Affected: Impaired Visual Placing Reflex ([2]; 300 mg/kg p.o., 1 h): 3
Number of Mice Affected: Loss of Corneal Reflex ([2]; 300 mg/kg p.o., 1 h): 3
Number of Mice Affected: Loss of Pinnal Reflex ([2]; 300 mg/kg p.o., 1 h): 3
Number of Mice Affected: Loss of Righting Reflex ([2]; 300 mg/kg p.o., 1 h): 3
Number of Mice Affected: Passive Response to Handling ([2]; 300 mg/kg p.o., 1 h): 3
Number of Mice Affected: Reduced Skin Plasticity ([2]; 300 mg/kg p.o., 1 h): 3
Number of Mice Affected: Soft Body Tone ([2]; 300 mg/kg p.o., 1 h): 3
Number of Mice Affected: Tail Pinch Response, Absent ([2]; 300 mg/kg p.o., 1 h): 3
Number of Mice Affected: Decreased Open Field Activity ([2]; 300 mg/kg p.o., 4 h): 2
Number of Mice Affected: Decreased Startle Reflex ([2]; 300 mg/kg p.o., 4 h): 0
Number of Mice Affected: Extensor Limb Tone (hind limb) ([2]; 300 mg/kg p.o., 4 h): 2
Number of Mice Affected: Impaired Horizontal Screen Performance ([2]; 300 mg/kg p.o., 4 h): 2
Number of Mice Affected: Impaired Visual Placing Reflex ([2]; 300 mg/kg p.o., 4 h): 0
Number of Mice Affected: Loss of Corneal Reflex ([2]; 300 mg/kg p.o., 4 h): 0
Number of Mice Affected: Loss of Pinnal Reflex ([2]; 300 mg/kg p.o., 4 h): 0
Number of Mice Affected: Loss of Righting Reflex ([2]; 300 mg/kg p.o., 4 h): 0
Number of Mice Affected: Passive Response to Handling ([2]; 300 mg/kg p.o., 4 h): 0
Number of Mice Affected: Reduced Skin Plasticity ([2]; 300 mg/kg p.o., 4 h): 0
Number of Mice Affected: Soft Body Tone ([2]; 300 mg/kg p.o., 4 h): 2
Number of Mice Affected: Tail Pinch Response, Absent ([2]; 300 mg/kg p.o., 4 h): 0
Structure (SMILES): NC(=O)OC[C@@H](O)c1ccccc1Cl [COMPOUND #7, carisbamate]
Median Duration of isolation-induced fighting [1, 3]: 28 s
Median Onset of isolation-induced fighting [1, 3]: 5 s
Median Duration of isolation-induced fighting [1, 4]: 6 s
Median Onset of isolation-induced fighting [1, 4]: 4 s
Median Duration of isolation-induced fighting [1, 5]: 20 s
Median Onset of isolation-induced fighting [1, 5]: 11 s
Median Duration of isolation-induced fighting [1, 6]: 26 s
onset of initiation of fighting compared to vehicle-treated group [1, 6]: significantly shortened
Median Duration of isolation-induced fighting [1, 7]: 18 s
Median Onset of isolation-induced fighting [1, 7]: 14 s
Median Duration of isolation-induced fighting [1, 8]: 9.5 s
Median Onset of isolation-induced fighting [1, 8]: 4 s
Median Duration of isolation-induced fighting [1, 9]: 0.5^b sec
Median Onset of isolation-induced fighting [1, 9]: 40 s
isolation-induced aggressive behavior in pairs of mice ([1]; 40 mg/kg p.o., 1 hour after administration, p<0.05): statistically significantly inhibited
Median Duration of isolation-induced fighting [1, 10]: 20 s
Median Onset of isolation-induced fighting [1, 10]: 17 s
median duration of fighting compared to vehicle-treated groups ([1]; any group (10 to 40 mg/kg p.o.), 4 hours after administration): not affected
Number of Mice Affected: Locomotor Ataxia ([2]; 40 mg/kg p.o., 1 h): 0
Number of Mice Affected: Locomotor Ataxia ([2]; 40 mg/kg p.o., 4 h): 0
Number of Mice Affected: Locomotor Ataxia ([2]; 100 mg/kg p.o., 1 h): 0
Number of Mice Affected: Locomotor Ataxia ([2]; 100 mg/kg p.o., 4 h): 0
effect on general behavior in mice ([2]; 300 mg/kg p.o.): produced sedation
Number of Mice Affected: Locomotor Ataxia ([2]; 300 mg/kg p.o., 1 h): 0
Number of Mice Affected: Locomotor Ataxia ([2]; 300 mg/kg p.o., 4 h): 2
behavioral or physical signs in mice ([2]; doses up to 100 mg/kg p.o.): No behavioral or physical signs were observed

From patent US20080103127A1, “METHODS FOR TREATING DISRUPTIVE BEHAVIOR DISORDERS” (priority 2006, published 2008)
